Tested on: MV-4-11 cells
Experiment: Gene expression microarray analysis (Affymetrix PrimeView) and GSEA
Assay type: cell-based, human
Design: RFU PODN (11730768_x_at) / Fold change /veh PODN (11730768_x_at) / RFU LINC00158 (11744669_a_at) / Fold change /veh LINC00158 (11744669_a_at) / RFU DUSP10 (11751237_a_at) / Fold change /veh DUSP10 (11751237_a_at) / RFU ID3 (11757404_x_at) / Fold change /veh ID3 (11757404_x_at) / RFU PLEKHG5 (11737974_s_at) / Fold change /veh PLEKHG5 (11737974_s_at) / RFU LRRC4B (11730491_at) / Fold change /veh LRRC4B (11730491_at) / RFU GIMAP4 (11747438_a_at) / Fold change /veh GIMAP4 (11747438_a_at) / RFU KRT8 (11758183_x_at) / Fold change /veh KRT8 (11758183_x_at) / RFU CNN1 (11734310_a_at) / Fold change /veh CNN1 (11734310_a_at) / RFU VPS37D (11726825_at) / Fold change /veh VPS37D (11726825_at) / RFU C10orf10 (11716522_x_at) / Fold change /veh C10orf10 (11716522_x_at) / RFU KIR2DL2 /// KIR2DL4 /// KIR2DL5A /// KIR2DL5B /// KIR2DS1 /// KIR2DS2 /// KIR2DS3 /// KIR2DS4 /// KIR3DL3 /// KIR3DL3 /// KIR3DS1 (11738374_at) / Fold change /veh KIR2DL2 /// KIR2DL4 /// KIR2DL5A /// KIR2DL5B /// KIR2DS1 /// KIR2DS2 /// KIR2DS3 /// KIR2DS4 /// KIR3DL3 /// KIR3DL3 /// KIR3DS1 (11738374_at) / RFU C1QL1 (11718748_at) / Fold change /veh C1QL1 (11718748_at) / RFU TMPRSS4 (11747572_a_at) / Fold change /veh TMPRSS4 (11747572_a_at) / RFU HAMP (11756126_x_at) / Fold change /veh HAMP (11756126_x_at) / RFU RNFT2 (11725882_a_at) / Fold change /veh RNFT2 (11725882_a_at) / RFU NR4A2 (11747474_a_at) / Fold change /veh NR4A2 (11747474_a_at) / RFU ABCC12 (11746883_a_at) / Fold change /veh ABCC12 (11746883_a_at) / RFU TMEM136 (11760407_x_at) / Fold change /veh TMEM136 (11760407_x_at) / RFU CLDN22 /// WWC2 (11732394_at) / Fold change /veh CLDN22 /// WWC2 (11732394_at) / RFU HLA-DPB1 (11760878_x_at) / Fold change /veh HLA-DPB1 (11760878_x_at) / RFU SPINT1 (11716480_a_at) / Fold change /veh SPINT1 (11716480_a_at) / RFU GAP43 (11754022_s_at) / Fold change /veh GAP43 (11754022_s_at) / RFU A4GNT (11735810_at) / Fold change /veh A4GNT (11735810_at) / RFU PRB3 (11715151_x_at) / Fold change /veh PRB3 (11715151_x_at) / RFU TUBB4B (11761932_at) / Fold change /veh TUBB4B (11761932_at) / RFU CAPN14 (11732068_a_at) / Fold change /veh CAPN14 (11732068_a_at) / RFU TMCC2 (11721928_a_at) / Fold change /veh TMCC2 (11721928_a_at) / RFU IRGQ (11745062_a_at) / Fold change /veh IRGQ (11745062_a_at) / RFU FAM174B (11720279_a_at) / Fold change /veh FAM174B (11720279_a_at) / RFU TMPRSS4 (11748680_a_at) / Fold change /veh TMPRSS4 (11748680_a_at) / RFU FAM212B (11763350_a_at) / Fold change /veh FAM212B (11763350_a_at) / RFU PLEKHG5 (11743358_a_at) / Fold change /veh PLEKHG5 (11743358_a_at) / RFU ZSCAN30 (11745921_a_at) / Fold change /veh ZSCAN30 (11745921_a_at) / RFU CMKLR1 (11741424_a_at) / Fold change /veh CMKLR1 (11741424_a_at) / RFU LOC101060620 /// MAPK8IP1 (11723275_at) / Fold change /veh LOC101060620 /// MAPK8IP1 (11723275_at) / RFU SPTSSB (11747773_x_at) / Fold change /veh SPTSSB (11747773_x_at) / RFU PRSS12 (11739890_at) / Fold change /veh PRSS12 (11739890_at) / RFU BIN1 (11741810_x_at) / Fold change /veh BIN1 (11741810_x_at) / RFU WNT11 (11732464_a_at) / Fold change /veh WNT11 (11732464_a_at) / RFU C10orf10 (11716521_a_at) / Fold change /veh C10orf10 (11716521_a_at) / RFU C5orf56 (11738089_at) / Fold change /veh C5orf56 (11738089_at) / RFU CYB561 (11721691_x_at) / Fold change /veh CYB561 (11721691_x_at) / RFU ANKRD19P (11752326_a_at) / Fold change /veh ANKRD19P (11752326_a_at) / RFU OR2T12 /// OR2T33 /// OR2T8 (11738714_s_at) / Fold change /veh OR2T12 /// OR2T33 /// OR2T8 (11738714_s_at) / RFU VCAN (11748164_a_at) / Fold change /veh VCAN (11748164_a_at) / RFU JSRP1 (11732532_at) / Fold change /veh JSRP1 (11732532_at) / RFU KRTAP10-11 (11738290_x_at) / Fold change /veh KRTAP10-11 (11738290_x_at) / RFU MYO3A (11730013_a_at) / Fold change /veh MYO3A (11730013_a_at) / RFU EBF3 (11725865_a_at) / Fold change /veh EBF3 (11725865_a_at) / RFU CAMK2N1 (11719241_x_at) / Fold change /veh CAMK2N1 (11719241_x_at) / RFU C5orf56 (11738088_a_at) / Fold change /veh C5orf56 (11738088_a_at) / RFU OLFML3 (11715873_a_at) / Fold change /veh OLFML3 (11715873_a_at) / RFU LOC100653217 /// NTM (11731650_a_at) / Fold change /veh LOC100653217 /// NTM (11731650_a_at) / RFU MAPK11 (11762145_a_at) / Fold change /veh MAPK11 (11762145_a_at) / RFU FIZ1 (11724087_x_at) / Fold change /veh FIZ1 (11724087_x_at) / RFU OASL (11726364_x_at) / Fold change /veh OASL (11726364_x_at) / RFU SOX15 (11748057_x_at) / Fold change /veh SOX15 (11748057_x_at) / RFU CD79A (11719716_a_at) / Fold change /veh CD79A (11719716_a_at) / RFU HIST1H1D (11736915_at) / Fold change /veh HIST1H1D (11736915_at) / RFU CASKIN2 (11723855_a_at) / Fold change /veh CASKIN2 (11723855_a_at) / RFU LOC730098 (11760151_x_at) / Fold change /veh LOC730098 (11760151_x_at) / RFU OR4N2 (11742367_at) / Fold change /veh OR4N2 (11742367_at) / RFU PRRT2 (11749266_a_at) / Fold change /veh PRRT2 (11749266_a_at) / RFU SNX32 (11753110_a_at) / Fold change /veh SNX32 (11753110_a_at) / RFU CDHR5 (11726645_a_at) / Fold change /veh CDHR5 (11726645_a_at) / RFU RCAN1 (11760418_a_at) / Fold change /veh RCAN1 (11760418_a_at) / RFU FAM167A (11723789_a_at) / Fold change /veh FAM167A (11723789_a_at) / RFU FAM26E (11764081_at) / Fold change /veh FAM26E (11764081_at) / RFU ISYNA1 (11749810_s_at) / Fold change /veh ISYNA1 (11749810_s_at) / RFU ACY1 (11761880_at) / Fold change /veh ACY1 (11761880_at) / RFU 11764098_at / Fold change /veh 11764098_at / RFU SAMD14 (11745864_x_at) / Fold change /veh SAMD14 (11745864_x_at) / RFU NPB (11741838_a_at) / Fold change /veh NPB (11741838_a_at) / RFU TMPRSS6 (11731388_a_at) / Fold change /veh TMPRSS6 (11731388_a_at) / RFU KRTAP10-2 (11738614_at) / Fold change /veh KRTAP10-2 (11738614_at) / RFU ARHGAP8 /// PRR5-ARHGAP8 (11727945_x_at) / Fold change /veh ARHGAP8 /// PRR5-ARHGAP8 (11727945_x_at) / RFU KRTAP5-7 /// NADSYN1 (11734609_at) / Fold change /veh KRTAP5-7 /// NADSYN1 (11734609_at) / RFU RASL12 (11751679_a_at) / Fold change /veh RASL12 (11751679_a_at) / RFU CDKN2B (11736163_a_at) / Fold change /veh CDKN2B (11736163_a_at) / RFU PRF1 (11729649_at) / Fold change /veh PRF1 (11729649_at) / RFU, ZNF638 /// ZNF638-IT1 / Fold change vs veh, ZNF638 /// ZNF638-IT1 / RFU, PANK3 / Fold change vs veh, PANK3 / RFU, SH3YL1 / Fold change vs veh, SH3YL1 / RFU, ZEB2 / Fold change vs veh, ZEB2 / RFU, NRIP1 / Fold change vs veh, NRIP1 / RFU, PTTG1IP / Fold change vs veh, PTTG1IP / RFU, CAPN2 / Fold change vs veh, CAPN2 / RFU, MED14 / Fold change vs veh, MED14 / RFU, SNORA58 / Fold change vs veh, SNORA58 / RFU, C1orf63 / Fold change vs veh, C1orf63 / RFU, LRRFIP1 / Fold change vs veh, LRRFIP1 / RFU, NDUFAF7 / Fold change vs veh, NDUFAF7 / RFU, SLC12A2 / Fold change vs veh, SLC12A2 / RFU, IBTK / Fold change vs veh, IBTK / RFU, ESF1 / Fold change vs veh, ESF1 / Fold change vs veh, TMEM50B / RFU, TAOK1 / Fold change vs veh, TAOK1 / RFU, ACBD3 / Fold change vs veh, ACBD3 / RFU, TMA16 / Fold change vs veh, TMA16 / RFU, RWDD3 / Fold change vs veh, RWDD3 / RFU, BCAT1 / Fold change vs veh, BCAT1 / RFU, EDEM3 / Fold change vs veh, EDEM3 / RFU, TMEM33 / Fold change vs veh, TMEM33 / RFU, WDR75 / Fold change vs veh, WDR75 / RFU, AHCTF1 / Fold change vs veh, AHCTF1 / RFU, TFRC / Fold change vs veh, TFRC / RFU, ZDHHC17 / Fold change vs veh, ZDHHC17 / RFU, NOM1 / Fold change vs veh, NOM1 / RFU, ARL8B / Fold change vs veh, ARL8B / RFU, ZBTB11 / Fold change vs veh, ZBTB11 / RFU, TAMM41 / Fold change vs veh, TAMM41 / RFU, KIAA1704 /// LOC100996395 / Fold change vs veh, KIAA1704 /// LOC100996395 / RFU, ING1 / Fold change vs veh, ING1 / RFU, TRMT61B / Fold change vs veh, TRMT61B / RFU, FUBP3 / Fold change vs veh, FUBP3 / RFU, TP53 / Fold change vs veh, TP53 / RFU, TNKS2 / Fold change vs veh, TNKS2 / RFU, ZFP14 / Fold change vs veh, ZFP14 / RFU, ACTR2 / Fold change vs veh, ACTR2 / RFU, PPP3R1 / Fold change vs veh, PPP3R1 / RFU, PIK3R1 / Fold change vs veh, PIK3R1 / RFU, HNRNPA1 / Fold change vs veh, HNRNPA1 / RFU, RNF170 / Fold change vs veh, RNF170 / RFU, ZNF28 / Fold change vs veh, ZNF28 / RFU, RNGTT / Fold change vs veh, RNGTT / RFU, OGT / Fold change vs veh, OGT / RFU, BRD1 / Fold change vs veh, BRD1 / RFU, MARS / Fold change vs veh, MARS / RFU, ZNF655 / Fold change vs veh, ZNF655 / RFU, FAHD1 / Fold change vs veh, FAHD1 / RFU, BDP1 / Fold change vs veh, BDP1 / RFU, LRRCC1 / Fold change vs veh, LRRCC1 / RFU, ARID1A / Fold change vs veh, ARID1A / RFU, ZNF146 / Fold change vs veh, ZNF146 / RFU, ZNF330 / Fold change vs veh, ZNF330 / RFU, GPN3 / Fold change vs veh, GPN3 / RFU, C9orf123 / Fold change vs veh, C9orf123 / RFU, N4BP2L2 / Fold change vs veh, N4BP2L2 / RFU, ARFIP1 / Fold change vs veh, ARFIP1 / RFU, FAM179B / Fold change vs veh, FAM179B / RFU, BCL10 / Fold change vs veh, BCL10 / RFU, UHRF1BP1L / Fold change vs veh, UHRF1BP1L / RFU, BET1 / Fold change vs veh, BET1 / RFU, CNOT2 / Fold change vs veh, CNOT2 / RFU, ZNF268 / Fold change vs veh, ZNF268 / Fold change vs veh, ZNF507 / RFU, DGCR2 / Fold change vs veh, DGCR2 / RFU, WDSUB1 / Fold change vs veh, WDSUB1 / Fold change vs veh, HSP90B1 /// MIR3652 / RFU, ADSS / Fold change vs veh, ADSS / RFU, GK / Fold change vs veh, GK / RFU, ZNF148 / Fold change vs veh, ZNF148 / RFU, TAF9 / Fold change vs veh, TAF9 / RFU, SLC1A5 / Fold change vs veh, SLC1A5 / RFU, SLMO2 / Fold change vs veh, SLMO2 / RFU, ABCC4 / Fold change vs veh, ABCC4 / RFU, LOC101060439 /// RAP1B / Fold change vs veh, LOC101060439 /// RAP1B / RFU, RFX7 / Fold change vs veh, RFX7 / RFU, GTPBP10 / Fold change vs veh, GTPBP10 / RFU, CNEP1R1 / Fold change vs veh, CNEP1R1 / RFU, BIVM-ERCC5 /// ERCC5 / Fold change vs veh, BIVM-ERCC5 /// ERCC5 / RFU, ILF3 / Fold change vs veh, ILF3 / RFU 11762660_at / Fold change /veh 11762660_at / RFU VCAN (11757783_s_at) / Fold change /veh VCAN (11757783_s_at) / RFU DDX43 (11728927_at) / Fold change /veh DDX43 (11728927_at) / RFU KRT8 (11758188_x_at) / Fold change /veh KRT8 (11758188_x_at) / RFU NKD1 (11759106_at) / Fold change /veh NKD1 (11759106_at) / RFU SRD5A1 (11742802_a_at) / Fold change /veh SRD5A1 (11742802_a_at) / RFU TPSAB1 /// TPSB2 (11721975_s_at) / Fold change /veh TPSAB1 /// TPSB2 (11721975_s_at) / RFU GSTM3 (11746129_a_at) / Fold change /veh GSTM3 (11746129_a_at) / RFU IL23R (11737362_x_at) / Fold change /veh IL23R (11737362_x_at) / RFU TMEM51 (11727254_a_at) / Fold change /veh TMEM51 (11727254_a_at) / RFU PIWIL2 (11732686_x_at) / Fold change /veh PIWIL2 (11732686_x_at) / RFU ORM1 (11744905_x_at) / Fold change /veh ORM1 (11744905_x_at) / RFU CCDC152 (11743942_at) / Fold change /veh CCDC152 (11743942_at) / RFU ECM1 (11717891_a_at) / Fold change /veh ECM1 (11717891_a_at) / RFU IL23R (11748794_a_at) / Fold change /veh IL23R (11748794_a_at) / RFU TNFAIP8L3 (11732012_x_at) / Fold change /veh TNFAIP8L3 (11732012_x_at) / RFU MBOAT4 (11741988_at) / Fold change /veh MBOAT4 (11741988_at) / RFU 11764193_at / Fold change /veh 11764193_at / RFU TMEM53 (11763286_at) / Fold change /veh TMEM53 (11763286_at) / RFU MAGEB2 (11727129_at) / Fold change /veh MAGEB2 (11727129_at) / RFU TMEM200A (11744735_a_at) / Fold change /veh TMEM200A (11744735_a_at) / RFU CCDC152 (11751479_a_at) / Fold change /veh CCDC152 (11751479_a_at) / RFU FAM211A (11726209_a_at) / Fold change /veh FAM211A (11726209_a_at) / RFU RGS16 (11746705_a_at) / Fold change /veh RGS16 (11746705_a_at) / RFU VCAN (11755009_s_at) / Fold change /veh VCAN (11755009_s_at) / RFU RHOB (11743442_s_at) / Fold change /veh RHOB (11743442_s_at) / RFU RGS16 (11720943_a_at) / Fold change /veh RGS16 (11720943_a_at) / RFU RGS16 (11720944_at) / Fold change /veh RGS16 (11720944_at) / RFU, VPS4B / Fold change vs veh, VPS4B / RFU, CREB1 / Fold change vs veh, CREB1 / RFU, DNAJC13 / Fold change vs veh, DNAJC13 / RFU, GNAQ / Fold change vs veh, GNAQ / RFU, CDK5R1 / Fold change vs veh, CDK5R1 / RFU, ZRANB3 / Fold change vs veh, ZRANB3 / RFU, CUL4A / Fold change vs veh, CUL4A / RFU, CCNY / Fold change vs veh, CCNY / RFU, UFL1 / Fold change vs veh, UFL1 / RFU, COG3 / Fold change vs veh, COG3 / RFU, DIAPH2 / Fold change vs veh, DIAPH2 / RFU, SKA2 / Fold change vs veh, SKA2 / RFU, AFF3 / Fold change vs veh, AFF3 / RFU, LMF1 / Fold change vs veh, LMF1 / RFU, IPO11 / Fold change vs veh, IPO11 / RFU, DFFB / Fold change vs veh, DFFB / RFU, FOXP1 / Fold change vs veh, FOXP1 / RFU, CARD8 / Fold change vs veh, CARD8 / RFU, STRN3 / Fold change vs veh, STRN3 / RFU, ADK / Fold change vs veh, ADK / RFU, RASSF2 / Fold change vs veh, RASSF2 / RFU, WIPF1 / Fold change vs veh, WIPF1 / RFU, LARP1B / Fold change vs veh, LARP1B / RFU, RASA1 / Fold change vs veh, RASA1 / RFU, RB1 / Fold change vs veh, RB1 / RFU, PPFIA1 / Fold change vs veh, PPFIA1 / RFU, MAT2A / Fold change vs veh, MAT2A / RFU, CCT5 / Fold change vs veh, CCT5 / RFU, WDR92 / Fold change vs veh, WDR92 / RFU, CUX1 / Fold change vs veh, CUX1 / RFU, TTC7A / Fold change vs veh, TTC7A / RFU, TMEM135 / Fold change vs veh, TMEM135 / RFU, DEPTOR / Fold change vs veh, DEPTOR / RFU, CPM / Fold change vs veh, CPM / RFU, DNAJB6 / Fold change vs veh, DNAJB6 / RFU, CACNA2D3 / Fold change vs veh, CACNA2D3 / RFU, DTX4 / Fold change vs veh, DTX4 / RFU, TFCP2 / Fold change vs veh, TFCP2 / RFU, GMCL1 /// GMCL1P1 / Fold change vs veh, GMCL1 /// GMCL1P1 / RFU, AEBP2 / Fold change vs veh, AEBP2 / RFU, SNHG1 /// SNORD22 /// SNORD25 /// SNORD26 /// SNORD27 /// SNORD28 /// SNORD29 /// SNORD31 / Fold change vs veh, SNHG1 /// SNORD22 /// SNORD25 /// SNORD26 /// SNORD27 /// SNORD28 /// SNORD29 /// SNORD31 / Fold change (Aza/veh), C12orf56 (ProbeSet 11735607_a_at) / Fold change (ACY-1035/veh), C12orf56 (ProbeSet 11735607_a_at) / Fold change (Aza/veh), FGFR1OP (ProbeSet 11751329_s_at) / Fold change (ACY-1035/veh), FGFR1OP (ProbeSet 11751329_s_at) / Fold change (Aza/veh), VPS36 (ProbeSet 11739960_a_at) / Fold change (ACY-1035/veh), VPS36 (ProbeSet 11739960_a_at) / RFU SYPL1 (11715823_x_at) / Fold change /veh SYPL1 (11715823_x_at) / RFU IGFBP7 (11715501_s_at) / Fold change /veh IGFBP7 (11715501_s_at) / RFU REEP3 (11722064_at) / Fold change /veh REEP3 (11722064_at) / RFU IGLL1 (11728026_x_at) / Fold change /veh IGLL1 (11728026_x_at): dose or concentration left out as unconfirmed
Details: ProbeSet 11722463_a_at; LIST B

Nc1ccc(-c2cccs2)cc1NC(=O)c1ccc2c(c1)cc(C1CC1)n2CCN1CCOCC1 [ACY-1035]
RFU, TNKS2: 53.51 RFU
